# From patent US20240279278A1, “NMU RECEPTOR 2 AGONISTS” (Boehringer Ingelheim International GmbH, priority 2023, published 2024)
# Residues, ends and D or L forms follow the SMILES beside them.
# How the values were obtained:
# physchem = assay type: physicochemical; conditions: pH 7.3
# Procedure, shortened: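 Peptide TFA salts were shaken at a nominal 10 mg/mL in 0.1 M phosphate buffer, pH 6 to 8, for 2 h at room temperature and then filtered. Reversed-phase HPLC peak area was compared with a 1 mg/mL control in buffer or DMSO to give solubility. The pH of each sample was recorded.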
# human NMUR1 receptor = molecular target: T1, human NMUR1 receptor (Homo sapiens, UniProt Q9HB89); assay: IP1 Gq HTRF assay, activation of human NMUR1 in buffer; assay type: cell-based; conditions: CHO-K1 cells expressing human NMUR1, stimulation buffer with 0.1% BSA; read-out: EC50 (hNMUR1) buffer
# T1 construct: expressed in transfected cells; host or cells: CHO-K1
# T1 sequence (Q9HB89 1-426): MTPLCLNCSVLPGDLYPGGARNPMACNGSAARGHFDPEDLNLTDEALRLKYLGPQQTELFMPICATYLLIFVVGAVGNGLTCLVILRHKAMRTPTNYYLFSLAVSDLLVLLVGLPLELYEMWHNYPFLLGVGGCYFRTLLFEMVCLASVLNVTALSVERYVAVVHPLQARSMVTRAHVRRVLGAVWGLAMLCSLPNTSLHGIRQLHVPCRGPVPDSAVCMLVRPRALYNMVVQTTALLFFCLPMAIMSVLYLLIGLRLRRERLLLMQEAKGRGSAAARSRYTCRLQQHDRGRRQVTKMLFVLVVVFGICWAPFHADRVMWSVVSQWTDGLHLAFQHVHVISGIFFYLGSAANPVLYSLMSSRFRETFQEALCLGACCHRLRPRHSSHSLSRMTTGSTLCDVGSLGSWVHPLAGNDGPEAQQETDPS
# Procedure, shortened: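 CHO-K1 cells stably expressing human NMUR1 or NMUR2, seeded 24 h before assay, stimulated with peptide agonists (8-point dose-response, 1% DMSO final) in HEPES/HBSS buffer with 50 mM LiCl and 0.1% BSA, pH 7.4, 1 h at 37 °C. IP1 accumulation read by HTRF competition (665/620 nm); EC50 from 4-parameter sigmoidal fit.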
structure (smiles),measurement,setting,value
"CCCC[C@H](NC(=O)[C@H](CC(C)C)N(C)C(=O)[C@H](Cc1ccccc1)NC(=O)[C@H](Cc1ccc(O)cc1)NC(=O)CN1CCN(CCNC(=O)CN(C)C(=O)CN(C)C(=O)CN(C)C(=O)CN(C)C(=O)CN(C)C(=O)CN(C)C(=O)CN(C)C(=O)CN(C)C(=O)CN(C)C(=O)CN(C)C(=O)CN(C)C(=O)CN(C)C(=O)CN(C)C(=O)CN(C)C(=O)CN(C)C(=O)CC[C@H](NC(=O)CC[C@H](NC(=O)CC[C@H](NC(=O)CCCCCCCCCCCCCCCCC(=O)O)C(=O)O)C(=O)O)C(=O)O)CC1)C(=O)N[C@@H](CCN)C(=O)N(C)[C@@H](C)C(=O)N[C@@H](CCCNC(=N)N)C(=O)NCC(N)=O [Compound 23, C18DA-gGlu3-Sar15-AEPipAc-Tyr-Phe-NMeLeu-Nle-Dbu-NMeAla-Arg-Gly-NH2] (HELM PEPTIDE1{[O=C(O)CCCCCCCCCCCCCCCCC(=O)[*:2]].[gGlu].[gGlu].[gGlu].[Sar].[Sar].[Sar].[Sar].[Sar].[Sar].[Sar].[Sar].[Sar].[Sar].[Sar].[Sar].[Sar].[Sar].[Sar].[O=C(CN1CCN(CCN[*:1])CC1)[*:2]].Y.F.[meL].[Nle].[Dab].[meA].R.G.[am]}$$$$V2.0)",solubility at 2 h,physchem,8900 µg/mL
same,EC50,human NMUR1 receptor,> 1000 nM
